# Data from US9758527B2, “Cyclohexene derivative, preparation method therefor, and pharmaceutical composition for preventing or treating metabolic diseases, containing same as active ingredient” (HYUNDAI PHARM CO., LTD., priority 2014, dated 2017).
# Read-outs that look alike come from different tables or passages of the source.
# Target: T1, G protein-coupled receptor 119 (GPR-119) (Mesocricetus auratus, UniProt A0A1U8CD06)
# T1 construct: hamster-derived β-cells containing G protein-coupled receptor 119 (GPR-119), HIT-T15 cells; host or cells: HIT-T15 (hamster pancreatic β-cells)
# T1 sequence (A0A1U8CD06 1-334): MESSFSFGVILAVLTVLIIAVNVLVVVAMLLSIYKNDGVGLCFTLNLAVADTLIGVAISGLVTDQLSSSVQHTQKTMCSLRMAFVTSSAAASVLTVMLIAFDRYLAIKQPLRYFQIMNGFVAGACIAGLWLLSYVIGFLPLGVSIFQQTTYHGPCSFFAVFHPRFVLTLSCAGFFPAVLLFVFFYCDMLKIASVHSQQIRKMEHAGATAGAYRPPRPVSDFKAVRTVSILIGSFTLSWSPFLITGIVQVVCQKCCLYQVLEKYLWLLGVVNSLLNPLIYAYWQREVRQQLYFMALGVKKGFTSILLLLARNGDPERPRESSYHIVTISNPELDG
# Experiment: Evaluation of cAMP activity in HIT-T15 cells (HTRF cAMP dynamic kit)
# Assay type: cell-based, hamster
# Settings: cAMP activation
# How it was run: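 HIT-T15 cells, 60,000/well, treated next day with compound at six concentrations ([…]) for 1 h at 37° C. Lysate cAMP quantified by HTRF competitive immunoassay (D2-cAMP, cryptate anti-cAMP); activity taken as change in FRET signal relative to DMSO.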
# [1] = 1 h at 37° C., six concentrations, read-out: EC50
Compound,EC50 [1],EC50 (read-out: EC50 value),"EC50 (EC50 (nM), 1 h at 37° C., six concentrations)",EC50 (EC50 value)
"CC(C)(C)OC(=O)N1CCC(COc2ccc(C3=CCC(C(=O)N4CC[C@H](F)C4)CC3)cn2)CC1 (stereo partly drawn) [Example 91, tert-butyl 4-((5-(4-((S)-3-fluoropyrrolidine-1-carbonyl)cyclohex-1-enyl)pyridin-2-yloxy)methyl)piperidine-1-carboxylate]",28 nM,≤ 50 nM,–,–
"CCc1cnc(N2CCC(COc3ccc(C4=CCC(C(=O)NCC(C)(C)CO)CC4)cc3)CC2)nc1 (stereo not drawn) [Example 177, 4-(4-((1-(5-ethylpyrimidin-2-yl)piperidin-4-yl)methoxy)phenyl)-N-(3-hydroxy-2,2-dimethylpropyl)cyclohex-3-enecarboxamide]",38 nM,–,–,–
"CCN(CCO)C(=O)C1CC=C(c2ccc(OCC3CCN(c4nc(C(C)C)no4)CC3)cc2)CC1 (stereo not drawn) [Example 35, N-ethyl-N-(2-hydroxyethyl)-4-(4-((1-(3-isopropyl-1,2,4-oxadiazol-5-yl)piperidin-4-yl)methoxy)phenyl)cyclohex-3-enecarboxamide]",22 nM,≤ 50 nM,–,–
"CC(C)c1noc(N2CCC(COc3ccc(C4=CCC(C(=O)N5CC[C@H](O)C5)CC4)cc3)CC2)n1 (stereo partly drawn) [Example 49, ((S)-3-hydroxypyrrolidin-1-yl)(4-(4-((1-(3-isopropyl-1,2,4-oxadiazol-5-yl)piperidin-4-yl)methoxy)phenyl)cyclohex-3-enyl)methanone]",26 nM,≤ 50 nM,–,–
"CC(C)(C)OC(=O)N1CCC(COc2ccc(C3=CCC(C(=O)N4CCC(=NO)CC4)CC3)cc2)CC1 (stereo not drawn) [Example 271, tert-butyl 4-((4-(4-(4-(hydroxyimino)piperidine-1-carbonyl)cyclohex-1-enyl)phenoxy)methyl)piperidine-1-carboxylate]",13 nM,≤ 50 nM,–,–
"CC(C)c1noc(N2CCC(COc3ccc(C4=CCC(C(=O)N5CCC(F)(F)C5)CC4)cc3)CC2)n1 (stereo not drawn) [Example 259, (3,3-difluoropyrrolidin-1-yl)(4-(4-((1-(3-isopropyl-1,2,4-oxadiazol-5-yl)piperidin-4-yl)methoxy)phenyl)cyclohex-3-enyl)methanone]",10 nM,≤ 50 nM,–,–
"CC(C)c1noc(N2CCC(COc3ccc(C4=CCC(C(=O)N5CCC[C@@H]5C(N)=O)CC4)cc3F)CC2)n1 (stereo partly drawn) [Example 116, (2R)-1-(4-(3-fluoro-4-((1-(3-isopropyl-1,2,4-oxadiazol-5-yl)piperidin-4-yl)methoxy)phenyl)cyclohex-3-enecarbonyl)pyrrolidine-2-carboxamide]",28 nM,≤ 50 nM,–,–
"CCc1cnc(N2CCC(COc3ccc(C4=CCC(C(=O)N5CC[C@H](O)C5)CC4)cc3)CC2)nc1 (stereo partly drawn) [Example 135, (4-(4-((1-(5-ethylpyrimidin-2-yl)piperidin-4-yl)methoxy)phenyl)cyclohex-3-enyl)((S)-3-hydroxypyrrolidin-1-yl)methanone]",30 nM,≤ 50 nM,–,–
"CC(C)c1noc(N2CCC(COc3ccc(C4=CCC(C(=O)NCC(C)(C)CO)CC4)cc3)CC2)n1 (stereo not drawn) [Example 22, N-(3-hydroxy-2,2-dimethylpropyl)-4-(4-((1-(3-isopropyl-1,2,4-oxadiazol-5-yl)piperidin-4-yl)methoxy)phenyl)cyclohex-3-enecarboxamide]",41 nM,≤ 50 nM,–,–
"CC(C)c1noc(N2CCC(COc3ccc(C4=CCC(C(=O)N5CC[C@@H](CO)C5)CC4)cc3)CC2)n1 (stereo partly drawn) [Example 149, ((R)-3-(hydroxymethyl)pyrrolidin-1-yl)(4-(4-((1-(3-isopropyl-1,2,4-oxadiazol-5-yl)piperidin-4-yl)methoxy)phenyl)cyclohex-3-enyl)methanone]",23 nM,≤ 50 nM,–,–
"CON=C1CCN(C(=O)C2CC=C(c3ccc(OCC4CCN(C(=O)OC(C)(C)C)CC4)cc3)CC2)CC1 (stereo not drawn) [Example 270, tert-butyl 4-((4-(4-(4-(methoxyimino)piperidine-1-carbonyl)cyclohex-1-enyl)phenoxy)methyl)piperidine-1-carboxylate]",12 nM,–,–,–
"CC(C)c1noc(N2CCC(COc3ccc(C4=CCC(C(=O)N[C@@H](C)CO)CC4)cc3)CC2)n1 (stereo partly drawn) [Example 19, N-((S)-1-hydroxypropan-2-yl)-4-(4-((1-(3-isopropyl-1,2,4-oxadiazol-5-yl)piperidin-4-yl)methoxy)phenyl)cyclohex-3-enecarboxamide]",110 nM,–,–,–
"CC(C)c1noc(N2CCC(COc3ccc(C4=CCC(C(=O)NCCC(=O)O)CC4)cc3F)CC2)n1 (stereo not drawn) [Example 111, 3-(4-(3-fluoro-4-((1-(3-isopropyl-1,2,4-oxadiazol-5-yl)piperidin-4-yl)methoxy)phenyl)cyclohex-3-enecarboxamido)propanoic acid]",1500 nM,–,–,–
"CCc1cnc(N2CCC(COc3ccc(C4=CCC(C(=O)N5CCC(=O)C5)CC4)cc3)CC2)nc1 (stereo not drawn) [Example 250, 1-(4-(4-((1-(5-ethylpyrimidin-2-yl)piperidin-4-yl)methoxy)phenyl)cyclohex-3-enecarbonyl)pyrrolidin-3-one]",12 nM,≤ 50 nM,–,–
"CC(C)c1noc(N2CCC(COc3ccc(C4=CCC(C(=O)NCC(=O)N5CCC[C@@H]5C(N)=O)CC4)cc3F)CC2)n1 (stereo partly drawn) [Example 121, (2R)-1-(2-(4-(3-fluoro-4-((1-(3-isopropyl-1,2,4-oxadiazol-5-yl)piperidin-4-yl)methoxy)phenyl)cyclohex-3-enecarboxamido)acetyl)pyrrolidine-2-carboxamide]",500 nM,–,–,–
"CC(C)c1noc(N2CCC(COc3ccc(C4=CCC(C(=O)N5CCCCC5)CC4)cc3)CC2)n1 (stereo not drawn) [Example 56, (4-(4-((1-(3-isopropyl-1,2,4-oxadiazol-5-yl)piperidin-4-yl)methoxy)phenyl)cyclohex-3-enyl)(piperidin-1-yl)methanone]",30 nM,≤ 50 nM,–,–
"CC(C)(C)OC(=O)N1CCC(COc2ccc(C3=CCC(C(=O)N4CC=CC4)CC3)cc2)CC1 (stereo not drawn) [Example 224, tert-butyl 4-((4-(4-(2,5-dihydro-1H-pyrrole-1-carbonyl)cyclohex-1-enyl)phenoxy)methyl)piperidine-1-carboxylate]",38 nM,≤ 50 nM,–,–
"CC(C)c1noc(N2CCC(COc3ccc(C4=CCC(C(=O)NC[C@H](O)CO)CC4)cc3)CC2)n1 (stereo partly drawn) [Example 18, N-((S)-2,3-dihydroxypropyl)-4-(4-((1-(3-isopropyl-1,2,4-oxadiazol-5-yl)piperidin-4-yl)methoxy)phenyl)cyclohex-3-enecarboxamide]",170 nM,–,–,–
"CC(C)(C)OC(=O)N1CCC(COc2ccc(C3=CCC(C(=O)NC[C@@H](O)CO)CC3)cc2)CC1 (stereo partly drawn) [Example 4, tert-butyl 4-((4-(4-((R)-2,3-dihydroxypropylcarbamoyl)cyclohex-1-enyl)phenoxy)methyl)piperidine-1-carboxylate]",150 nM,–,–,–
"CC(C)(C)OC(=O)N1CCC(COc2ccc(C3=CCC(C(=O)NCC(F)(F)F)CC3)c(F)c2)CC1 (stereo not drawn) [Example 142, tert-butyl 4-((3-fluoro-4-(4-(2,2,2-trifluoroethylcarbamoyl)cyclohex-1-enyl)phenoxy)methyl)piperidine-1-carboxylate]",85 nM,–,–,–
"CC(C)c1noc(N2CCC(COc3ccc(C4=CCC(C(=O)N5CCC[C@@H]5C#N)CC4)cc3F)CC2)n1 (stereo partly drawn) [Example 117, (2R)-1-(4-(3-fluoro-4-((1-(3-isopropyl-1,2,4-oxadiazol-5-yl)piperidin-4-yl)methoxy)phenyl)cyclohex-3-enecarbonyl)pyrrolidine-2-carbonitrile]",11 nM,≤ 50 nM,–,–
"CC(C)c1noc(N2CCC(COc3ccc(C4=CCC(C(=O)NCC(=O)N5CCC[C@@H]5C#N)CC4)cc3F)CC2)n1 (stereo partly drawn) [Example 122, N-(2-((R)-2-cyanopyrrolidin-1-yl)-2-oxoethyl)-4-(3-fluoro-4-((1-(3-isopropyl-1,2,4-oxadiazol-5-yl)piperidin-4-yl)methoxy)phenyl)cyclohex-3-enecarboxamide]",130 nM,–,–,–
"CC(C)(C)OC(=O)N1CCC(COc2ccc(C3=CCC(C(=O)NC(CO)CO)CC3)cc2F)CC1 (stereo not drawn) [Example 67, tert-butyl 4-((4-(4-(1,3-dihydroxypropan-2-ylcarbamoyl)cyclohex-1-enyl)-2-fluorophenoxy)methyl)piperidine-1-carboxylate]",60 nM,–,–,–
"CC(C)c1noc(N2CCC(COc3ccc(C4=CCC(C(=O)N5CC[C@H](CO)C5)CC4)cc3)CC2)n1 (stereo partly drawn) [Example 150, ((S)-3-(hydroxymethyl)pyrrolidin-1-yl)(4-(4-((1-(3-isopropyl-1,2,4-oxadiazol-5-yl)piperidin-4-yl)methoxy)phenyl)cyclohex-3-enyl)methanone]",19 nM,≤ 50 nM,–,–
"CC(C)c1noc(N2CCC(COc3ccc(C4=CCC(C(=O)N5CCC6(CC5)OCCO6)CC4)cc3)CC2)n1 (stereo not drawn) [Example 267, (4-(4-((1-(3-isopropyl-1,2,4-oxadiazol-5-yl)piperidin-4-yl)methoxy)phenyl)cyclohex-3-enyl)(1,4-dioxa-8-azaspiro[4.5]decan-8-yl)methanone]",–,–,21 nM,≤ 50 nM
"CON(C)C(=O)C1CC=C(c2ccc(OCC3CCN(C(=O)OC(C)(C)C)CC3)cc2)CC1 (stereo not drawn) [Example 223, tert-butyl 4-((4-(4-(methoxy(methyl)carbamoyl)cyclohex-1-enyl)phenoxy)methyl)piperidine-1-carboxylate]",25 nM,≤ 50 nM,–,–
